What was measured:
Assay in all cases: Specificity to transferring acceptor
Format in all cases: biochemical
Set-up in all cases: key: −: no saccharide transferred product was formed; ±: a saccharide-transferred product formed in an amount of less than one percent to the total sugars; +: a saccharide-transferred product was formed in an amount of over one percent but below 10% to the total sugars; ++: a saccharide-transferred product was formed in an amount of over 10% to the total sugars
[1] = system: α-isomaltosyl-transferring enzyme from Arthrobacter globiformis A19; conditions: partially purified enzyme, panose as saccharide donor, 10 units/g substrate, 3.2% (w/v), 30° C., pH 6.0, 24 hours
Procedure: (§1) Saccharides were tested as follows to examine whether they can be used as transferring acceptors for the α-isomaltosyl-transferring enzyme of the present invention. A solution of D-glucose, D-xylose, L-xylose, D-galactose, D-fructose, D-mannose, D-arabinose, D-fucose, L-sorbose, L-rhamnose, methyl-α-glucoside (or methyl-α-glucopyranoside), methyl-β-glucoside (or methyl-β-glucopyranoside), N-acetyl-D-glucosamine, D-ribose, L-ribose, D-psicose, sorbitol, xylitol, mannitol, arabitol, ribitol, erythritol, maltose, maltotriose, maltotetraose, maltopentaose, isomaltose, isomaltotriose, α,α-trehalose, α,β-trehalose, kojibiose, nigerose, cellobiose, gentibiose, isopanose, maltitol, maltotriitol, lactose, sucrose, erlose, isomaltosylglucoside, α-cyclodextrin, β-cyclodextrin, γ-cyclodextrin, or L-ascorbic acid was prepared. To each solution was added panose as a saccharide donor to give an equal concentration, admixed with 10 units/g substrate of a purified specimen of either α-isomaltosyl-transferring enzyme from Bacillus globisporus C9 obtained by the method in Experiment 4, Bacillus globisporus C11 obtained by the method in Experiment 7, Bacillus globisporus N75 obtained by the method in Experiment 11, or Arthrobacter ramosus S1 obtained by the method in Experiment 15, or a partially purified specimen of α-isomaltosyl-transferring enzyme from Arthrobacter globiformis A19 obtained by the method in Experiment 18, followed by adjusting the saccharide concentration to 3.2% (w/v). The mixtures thus obtained were enzymatically reacted at 30° C. and Ph 6.0 for 24 hours. The saccharide composition of the resulting reaction mixtures were analyzed on gas chromatography (abbreviated as “GLC” hereinafter) for monosaccharides and disaccharides as testing saccharides, and on HPLC for tri- or higher-saccharides as testing saccharides to confirm whether these saccharides can be used as transferring acceptors for the above enzymes with an index of the positive or negative formation of a saccharide transferred product. In performing GLC, the following apparatuses and conditions were used: GLC apparatus, “GC-16A” commercialized by Shimadzu Corporation, Tokyo, Japan; column, a stainless-steel column, 3 mm in diameter and 2 m in length, packed with 2% “SILICONE OV-17/[…]”, commercialized by GL Sciences Inc., Tokyo, Japan; carrier gas, nitrogen gas at a flow rate of 40 ml/min under temperature conditions of increasing from 160° C. to 320° C. at an increasing temperature rate of 7.5° C./min; and detection, a hydrogen flame ionization detector. In the case of HPLC analysis, the apparatuses and conditions used were: HPLC apparatus, “CCPD” commercialized by Tosoh Corporation, Tokyo, Japan; column, “ODS-AQ-303” commercialized by YMC Co., Ltd., Tokyo, Japan; eluent, water at a flow rate of 0.5 ml/min; and detection, a differential refractometer.

[2] = system: α-isomaltosyl-transferring enzyme from Arthrobacter ramosus S1; conditions: panose as saccharide donor, 10 units/g substrate, 3.2% (w/v), 30° C., pH 6.0, 24 hours
Procedure: as §1

[3] = system: α-isomaltosyl-transferring enzyme from Bacillus globisporus C11; conditions: panose as saccharide donor, 10 units/g substrate, 3.2% (w/v), 30° C., pH 6.0, 24 hours
Procedure: as §1

[4] = system: α-isomaltosyl-transferring enzyme from Bacillus globisporus C9; conditions: panose as saccharide donor, 10 units/g substrate, 3.2% (w/v), 30° C., pH 6.0, 24 hours
Procedure: as §1

[5] = system: α-isomaltosyl-transferring enzyme from Bacillus globisporus N75; conditions: panose as saccharide donor, 10 units/g substrate, 3.2% (w/v), 30° C., pH 6.0, 24 hours
Procedure: as §1

SMILES	Product of transferring reaction, Enzyme of Stain A19 [1]	Product of transferring reaction, Enzyme of Strain S1 [2]	Product of transferring reaction, Enzyme of Strain C11 [3]	Product of transferring reaction, Enzyme of Strain C9 [4]	Product of transferring reaction, Enzyme of Strain N75 [5]
OC[C@@H](O)C(O)[C@H](O)CO [Arabitol, arabitol]	−	± (a saccharide-transferred product formed in an amount of less than one percent to the total sugars)	−	−	−
O=C[C@@H](O)[C@H](O)[C@H](O)CO [D-Arabinose, D-arabinose]	± (a saccharide-transferred product formed in an amount of less than one percent to the total sugars)	+ (a saccharide-transferred product was formed in an amount of over one percent but below 10% to the total sugars)	± (a saccharide-transferred product formed in an amount of less than one percent to the total sugars)	± (a saccharide-transferred product formed in an amount of less than one percent to the total sugars)	± (a saccharide-transferred product formed in an amount of less than one percent to the total sugars)
O=C(CO)[C@@H](O)[C@H](O)[C@H](O)CO [D-Fructose, D-fructose]	± (a saccharide-transferred product formed in an amount of less than one percent to the total sugars)	+ (a saccharide-transferred product was formed in an amount of over one percent but below 10% to the total sugars)	−	−	−
C[C@@H](O)[C@H](O)[C@H](O)[C@@H](O)C=O [D-Fucose, D-fucose]	± (a saccharide-transferred product formed in an amount of less than one percent to the total sugars)	+ (a saccharide-transferred product was formed in an amount of over one percent but below 10% to the total sugars)	± (a saccharide-transferred product formed in an amount of less than one percent to the total sugars)	± (a saccharide-transferred product formed in an amount of less than one percent to the total sugars)	± (a saccharide-transferred product formed in an amount of less than one percent to the total sugars)
O=C[C@H](O)[C@@H](O)[C@@H](O)[C@H](O)CO [D-Galactose, D-galactose]	± (a saccharide-transferred product formed in an amount of less than one percent to the total sugars)	+ (a saccharide-transferred product was formed in an amount of over one percent but below 10% to the total sugars)	−	−	−
O=C[C@H](O)[C@@H](O)[C@H](O)[C@H](O)CO [D-Glucose, D-glucose]	++ (a saccharide-transferred product was formed in an amount of over 10% to the total sugars)	++ (a saccharide-transferred product was formed in an amount of over 10% to the total sugars)	++ (a saccharide-transferred product was formed in an amount of over 10% to the total sugars)	++ (a saccharide-transferred product was formed in an amount of over 10% to the total sugars)	++ (a saccharide-transferred product was formed in an amount of over 10% to the total sugars)
O=C[C@@H](O)[C@@H](O)[C@H](O)[C@H](O)CO [D-Mannose, D-mannose]	−	−	−	−	−
O=C(CO)[C@H](O)[C@H](O)[C@H](O)CO [D-Psicose, D-psicose]	± (a saccharide-transferred product formed in an amount of less than one percent to the total sugars)	± (a saccharide-transferred product formed in an amount of less than one percent to the total sugars)	−	−	−
O=C[C@H](O)[C@H](O)[C@H](O)CO [D-Ribose, D-ribose]	± (a saccharide-transferred product formed in an amount of less than one percent to the total sugars)	+ (a saccharide-transferred product was formed in an amount of over one percent but below 10% to the total sugars)	−	−	−
O=C[C@H](O)[C@@H](O)[C@H](O)CO [D-Xylose, D-xylose]	++ (a saccharide-transferred product was formed in an amount of over 10% to the total sugars)	++ (a saccharide-transferred product was formed in an amount of over 10% to the total sugars)	++ (a saccharide-transferred product was formed in an amount of over 10% to the total sugars)	++ (a saccharide-transferred product was formed in an amount of over 10% to the total sugars)	++ (a saccharide-transferred product was formed in an amount of over 10% to the total sugars)
OC[C@H]1O[C@@](CO)(O[C@H]2O[C@H](CO)[C@@H](O[C@H]3O[C@H](CO)[C@@H](O)[C@H](O)[C@H]3O)[C@H](O)[C@H]2O)[C@@H](O)[C@@H]1O [Erlose, erlose]	+ (a saccharide-transferred product was formed in an amount of over one percent but below 10% to the total sugars)	+ (a saccharide-transferred product was formed in an amount of over one percent but below 10% to the total sugars)	+ (a saccharide-transferred product was formed in an amount of over one percent but below 10% to the total sugars)	+ (a saccharide-transferred product was formed in an amount of over one percent but below 10% to the total sugars)	+ (a saccharide-transferred product was formed in an amount of over one percent but below 10% to the total sugars)

From patent US7192746B2, “α-Isomaltosyltransferase, process for producing the same and use thereof” (Kabushiki Kaisha Hayashibara Seibutsu Kagaku Kenkyujo, priority 2000, dated 2007)
